# Assay results from US20240245677A1, “SELECTED COMPOUNDS FOR TARGETED DEGRADATION OF BRD9” (C4 THERAPEUTICS, INC., priority 2021, published 2024).
# Read-outs that look alike come from different tables or passages of the source.
# How the values were obtained:
# [1] = Hygroscopicity by DVS at 25° C.; assay type: physicochemical; settings: for water uptake: DVS 25° C.
# Protocol: Hygroscopicity of Form A and Form N was investigated by DVS at 25° C. […] Form A converted to Form K after the DVS test. Form K is a metastable hydrate. It reverted back to Form A after exposure to ambient condition.
# Hygroscopicity of the free base Pattern A* and the urea cocrystal Form P were evaluated by DVS at 25° C.
# [2] = physchem; settings: 37 °C, thermodynamic from solid
# [3] = pH 6.5
# [4] = Variable humidity XRPD (VH-XRPD) experiments; assay type: physicochemical
# Protocol: Based on DVS results, variable humidity XRPD was conducted for Pattern A at different humidity conditions, including 40%, 70%, 90%, 70%, 40%, 20%, 0%, 40% RH conditions.
# Based on DVS results, variable humidity XRPD was conducted for Pattern N, at different humidity conditions, including 40%, 70%, 90%, 70%, 40%, 20%, 0%, 40% RH conditions.
# [5] = Photostability study; settings: 1.2 million lux-hrs at 25° C., open container
# [6] = Solubility study in aqueous media at 37° C.
# [7] = Variable temperature XRPD (VT-XRPD) experiments; assay type: physicochemical
# Protocol: To investigate form conversion behavior, variable temperature XRPD experiments were conducted for hydrate Pattern A, hydrate Pattern C, hydrate Pattern F and hetero-solvate Pattern L.
# Based on DSC and TGA results, variable temperature XRPD was conducted for Pattern A, at different temperatures, including 25° C., 110° C. and 25° C.
# Based on DSC and TGA results, variable temperature XRPD was conducted for Pattern B, at different temperatures, including 25° C., 80° C., 130° C. and 25° C. The sample after heating-cooling was placed at 25° C./75% RH condition for 1 day and investigated by XRPD.
# Based on DSC and TGA results, variable temperature XRPD was conducted for Pattern C, at different temperatures, including 25° C., 110° C. and 25° C.
# Based on DSC and TGA results, variable temperature XRPD was conducted for Pattern F at different temperatures, including 25° C., 110° C. and 25° C. The sample after heating-cooling was placed at 25° C./75% RH condition for 1 day and investigated by XRPD.
# Based on DSC and TGA results, variable temperature XRPD was conducted for Pattern L, at different temperatures, including 25° C., 100° C., 140° C., 180° C. and 25° C. The sample after heating-cooling was placed at 25° C./92% RH condition for 24 h and investigated by XRPD.
# [8] = Bulk stability study (1 week stress conditions; drying); settings: one week
# [9] = Mouse Hepatocyte Stability Assay; assay type: in vitro ADME; settings: CD-1, cryopreserved hepatocytes
# Protocol: The metabolic stability of Compound 1 was evaluated using cryopreserved hepatocytes from mice, rats, dogs, cynomolgus monkeys, and humans.
# 50 μL of 1 mM intermediate solutions for each test compound was prepared by adding 5 μL of 10 mM stock solution to 45 μL of a 1:1 mixture of water and acetonitrile. A 2 μM working stocks for each test compound were prepared in incubation media, InvitroGRO™ KHB (Bio IVT, Westbury, NY, USA), by adding 2 μL of 1 mM intermediate stock to 998 μL of incubation media.
# To thaw the hepatocytes, InvitroGRO™ HT thawing medium (BioIVT, Westbury, NY, USA) was prewarmed to 37° C., and 48 mL of warmed thawing medium was transferred to a sterile 50 mL conical tube. The hepatocyte vial was removed from the liquid nitrogen Dewar, and gently thawed in a water bath at 37° C. for 1-2 minutes, then the contents of the vial were emptied into a conical tube with prewarmed InvitroGRO HT medium. 1 mL of prewarmed InvitroGRO HT medium was added to each emptied hepatocyte vial to resuspend any remaining cells, and the contents were pipetted into the hepatocyte suspension. The tube containing the hepatocyte suspension was centrifuged at 50*g for 5 minutes. The supernatant was removed carefully, and the remaining pellet was resuspended by adding 1 mL of incubation media, InvitroGRO KHB, and gently shaking until there were no clumps.
# Cell viability was determined using the trypan blue method. 25 μL of hepatocyte cell suspension was added to a trypan blue (TB) solution (containing 775 μL InvitroGRO KHB and 200 μL of Trypan Blue). Cell count was taken using a hemacytometer.
# For mouse hepatocytes, 200 μL of hepatocytes (0.8×10^6 cells/mL) were added to the wells of a 48 well plate (Catalog No. 92048, TPP Techno Plastic Products AG, Trasadingen, Switzerland) and pre-incubated for 30 minutes at 37° C. For rat, dog, monkey, […], 200 μL of hepatocytes (2×10^6 cells/mL) were added to the wells of a 48 well plate (Catalog No. 92048, TPP Techno Plastic Products AG, Trasadingen, Switzerland) and pre-incubated for 30 minutes at 37° C.
# For all species of hepatocytes, once the pre-incubation period was complete, 200 μL of 2 μM working stock of test compound was added to the wells of the plate, and the plate was vortexed on a Vibramax™ 100 (P/N 544-21200-00, Heidolph Instruments GmbH & Co. KG, Schwabach, Germany) at 500 rpm in a 37° C. CO2 incubator (Model No. 51026280, ThermoFisher Scientific, Waltham, MA, USA). At each time point of 0, 15, 30, 60, 90, and 120 minutes, 50 μL of incubation mixture was precipitated with 200 μL of acetonitrile containing internal standard.
# At the end of the experiment, the samples were centrifuged at 4000 rpm for 10 minutes. The supernatant was collected and diluted with an equal amount of water, and vortexed for 5 minutes at 900 rpm in MixMate® (Model No. 5353, Eppendorf SE, Hamburg, Germany).
# The supernatant samples were submitted for LC-MS/MS analysis.
# Calculations of the results included the following: […]
# [10] = pH 4.5, 50 mM acetate buffer, 24 h
structure (smiles),measurement,setting,value
COc1cc(-c2cn(C)c(=O)c(C)c2C)cc(OC)c1CN1CC[C@H](N2CCN(c3ccc(N[C@H]4CCC(=O)NC4=O)cc3F)CC2)C(F)(F)C1 [Form P],water uptake,[1]; 95% RH,3.1%
same,water uptake,[1]; below 90% RH,1.6%
same,Solubility,"[2]; pH 1, simulated gastric fluid",> 2000 µg/mL
same,Solubility,"[2]; pH 1.8, simulated gastric fluid",> 2000 µg/mL
same,Solubility,"[2]; pH 4.5, aqueous buffer",100 to 300 µg/mL
same,Solubility,"[2]; pH 5, fessif",100 to 300 µg/mL
same,Solubility,[3],low solubility (close to LOQ)
COc1cc(-c2cn(C)c(=O)c(C)c2C)cc(OC)c1CN1CC[C@H](N2CCN(c3ccc(N[C@H]4CCC(=O)NC4=O)cc3F)CC2)C(F)(F)C1 [Pattern A*],water uptake from 40% RH to 95% RH,[1]; DVS,6.0% water uptake from
same,water uptake,[1]; 95% RH,about 6.0%
same,1st desorp. (%),"[1]; DVS, 0% RH",0.0%
same,2nd sorp. (%),"[1]; DVS, 0% RH",0.0%
same,1st desorp. (%),"[1]; DVS, 10% RH",1.1%
same,2nd sorp. (%),"[1]; DVS, 10% RH",1.0%
same,1st desorp. (%),"[1]; DVS, 20% RH",1.8%
same,2nd sorp. (%),"[1]; DVS, 20% RH",1.5%
same,1st desorp. (%),"[1]; DVS, 30% RH",4.5%
same,2nd sorp. (%),"[1]; DVS, 30% RH",2.1%
same,1st desorp. (%),"[1]; DVS, 40% RH",6.3%
same,1st sorp. (%),"[1]; DVS, 40% RH",4.6%
same,2nd desorp. (%),"[1]; DVS, 40% RH",6.6%
same,2nd sorp. (%),"[1]; DVS, 40% RH",3.6%
same,1st desorp. (%),"[1]; DVS, 50% RH",8.5%
same,1st sorp. (%),"[1]; DVS, 50% RH",5.2%
same,2nd desorp. (%),"[1]; DVS, 50% RH",8.5%
same,2nd sorp. (%),"[1]; DVS, 50% RH",5.8%
same,1st desorp. (%),"[1]; DVS, 60% RH",9.4%
same,1st sorp. (%),"[1]; DVS, 60% RH",6.9%
same,2nd desorp. (%),"[1]; DVS, 60% RH",9.4%
same,2nd sorp. (%),"[1]; DVS, 60% RH",7.7%
same,1st desorp. (%),"[1]; DVS, 70% RH",9.7%
same,1st sorp. (%),"[1]; DVS, 70% RH",9.1%
same,2nd desorp. (%),"[1]; DVS, 70% RH",9.7%
same,2nd sorp. (%),"[1]; DVS, 70% RH",9.3%
same,1st desorp. (%),"[1]; DVS, 80% RH",1.0%
same,1st sorp. (%),"[1]; DVS, 80% RH",9.8%
same,2nd desorp. (%),"[1]; DVS, 80% RH",10.0%
same,2nd sorp. (%),"[1]; DVS, 80% RH",9.8%
same,1st desorp. (%),"[1]; DVS, 90% RH",10.3%
same,1st sorp. (%),"[1]; DVS, 90% RH",10.3%
same,2nd desorp. (%),"[1]; DVS, 90% RH",10.3%
same,2nd sorp. (%),"[1]; DVS, 90% RH",10.2%
same,1st desorp. (%),"[1]; DVS, 95% RH",10.6%
same,1st sorp. (%),"[1]; DVS, 95% RH",10.6%
same,2nd desorp. (%),"[1]; DVS, 95% RH",10.5%
same,2nd sorp. (%),"[1]; DVS, 95% RH",10.5%
same,XRPD,[4]; 0% RH,Pattern J
same,XRPD,[4]; 0% RH hold 6 h,Pattern J
same,XRPD,[4]; 0% RH hold 2 days,Pattern J
same,XRPD,[4]; 20% RH,Pattern A
same,XRPD,"[4]; 40% RH (after 90% RH, falling)",Pattern A
same,XRPD,[4]; 40% RH (first step),Pattern A
same,XRPD,"[4]; 40% RH (last step, after 0% RH)",Pattern A
same,XRPD,[4]; 70% RH (after 90% RH),Metastable Pattern K
same,XRPD,[4]; 70% RH (humidity rising),Metastable Pattern K
same,XRPD,[4]; 90% RH,Metastable Pattern K
same,degradation after exposure to light,[5],~1%
same,Solubility,[6]; FaSSIF-v1 (pH 6.5),low solubility (close to LOQ)
same,pH,"[6]; FaSSIF-v1, pH 6.5, 2 h",pH: 6.5
same,Solubility,"[6]; FaSSIF-v1, pH 6.5, 2 h, target 10 mg/5 mL, LOQ: 50 μg/mL",<LOQ
same,XRPD of residual solids,"[6]; FaSSIF-v1, pH 6.5, 24 h",No form change
same,pH,"[6]; FaSSIF-v1, pH 6.5, 24 h",pH: 6.5
same,Solubility,"[6]; FaSSIF-v1, pH 6.5, 24 h, target 10 mg/5 mL, LOQ: 50 μg/mL",0.08 mg/mL
same,pH,"[6]; FeSSIF-v1, pH 5.0, 2 h",pH: 5.0
same,Solubility,"[6]; FeSSIF-v1, pH 5.0, 2 h, target 10 mg/5 mL, LOQ: 50 μg/mL",0.17 mg/mL
same,pH,"[6]; FeSSIF-v1, pH 5.0, 24 h",pH: 5.0
same,Solubility,"[6]; FeSSIF-v1, pH 5.0, 24 h, target 10 mg/5 mL, LOQ: 50 μg/mL",0.21 mg/mL
same,pH,"[6]; SGF, pH 1.8, 2 h",pH: 2.4
same,Solubility,"[6]; SGF, pH 1.8, 2 h, target 10 mg/5 mL, LOQ: 50 μg/mL",>2 mg/mL
same,pH,"[6]; SGF, pH 1.8, 24 h",pH: 2.4
same,Solubility,"[6]; SGF, pH 1.8, 24 h, target 10 mg/5 mL, LOQ: 50 μg/mL",>2 mg/mL
same,pH,"[6]; pH 1.0 (0.1N HCl), 2 h",pH: 1.0
same,Solubility,"[6]; pH 1.0 (0.1N HCl), 2 h, target 10 mg/5 mL, LOQ: 50 μg/mL",>2 mg/mL
same,pH,"[6]; pH 1.0 (0.1N HCl), 24 h",pH: 1.0
same,Solubility,"[6]; pH 1.0 (0.1N HCl), 24 h, target 10 mg/5 mL, LOQ: 50 μg/mL",>2 mg/mL
same,pH,"[6]; pH 4.5, 50 mM acetate buffer, 2 h",pH: 4.5
same,Solubility,"[6]; pH 4.5, 50 mM acetate buffer, 2 h, target 10 mg/5 mL, LOQ: 50 μg/mL",0.26 mg/mL
same,XRPD of residual solids,[6]; [10],No form change
same,pH,[6]; [10],pH: 4.5
same,Solubility,"[6]; pH 4.5, 50 mM acetate buffer, 24 h, target 10 mg/5 mL, LOQ: 50 μg/mL",0.12 mg/mL
same,XRPD,[7]; 25° C. (start),Pattern A
same,XRPD,[7]; 25° C./50% RH hold 2 h,Pattern A
same,XRPD,[7]; Cool to 25° C.,Metastable Pattern J
same,XRPD,[7]; Heat to 110° C.,Metastable Pattern J
same,chemical stability,"[8]; 25° C./92% RH open, 40° C./75% RH open, 60° C. tight container",good chemical stability
same,physical stability,"[8]; 25° C./92% RH, open container",agglomeration
same,physical stability,"[8]; 40° C./75% RH, open container",physically stable
same,physical stability,"[8]; 60° C., tight container",crystallinity decrease
"CC(C)NCC(O)COc1cccc2ccccc12 (stereo not shown) [Propranolol, reference compound]",half-life at 1 µM,[9],16.3 min
